Experimental data taken from US11771662B2, “Analgesic formulation for control of pain in dogs” (Kansas State University Research Foundation, priority 2017, dated 2023).

What was measured:
[1] = tested on: dogs undergoing ovariohysterectomy; experiment: Pre-anesthetic sedation in ovariohysterectomy clinical trial (Example IV); conditions: 0.5 mg/kg SC q 4 h; with acepromazine 0.05 mg/kg SC
[2] = tested on: dogs undergoing ovariohysterectomy; experiment: Adverse effects in ovariohysterectomy clinical trial (Example IV); conditions: injection group, 0.5 mg/kg SC q 4 h
[3] = Plasma methadone, fluconazole, naltrexone and naltrexone metabolite concentrations (Example IV)
From the text: Anesthesia was monitored by licensed veterinary technicians.

[4] = tested on: dogs undergoing ovariohysterectomy; experiment: Sedation scores at each time point in ovariohysterectomy clinical trial (Example IV); conditions: 0.5 mg/kg SC q 4 h
[5] = humans; cited from earlier work
[6] = tested on: healthy dogs; experiment: Sedation assessment after oral methadone alone or with oral fluconazole (Example I); type: in vivo, dog; conditions: methadone alone 1 mg/kg PO
[7] = in vivo
Method: Five healthy mixed breed, purpose bred dogs were included in this study. […] Blood was obtained immediately prior to the 4 hour dose (i.e. a trough sample).

[8] = tested on: dogs undergoing ovariohysterectomy; experiment: Postoperative pain: Glasgow Composite Pain Scale and need for rescue analgesic (Example IV); conditions: 0.5 mg/kg SC q 4 h; total 13

CCC(=O)C(CC(C)N(C)C)(c1ccccc1)c1ccccc1 (racemic) [methadone]
Pre-anesthetic sedation: A. None - no apparent effect (number of dogs) [1]: 0
Pre-anesthetic sedation: B. Mild - drowsy, but still active (number of dogs) [1]: 7
Pre-anesthetic sedation: C. Moderate - drowsy, glazed eyes, but still able to walk without assistance (number of dogs) [1]: 3
Pre-anesthetic sedation: D. Heavy - Very drowsy, unable to walk or requires assistance to walk (number of dogs) [1]: 3
Perioperative nausea or vomiting (dogs affected/dogs in group) [2]: 2/13
Plasma methadone concentrations median (range) ([3]; injectable methadone 0.5 mg/kg SC q 4 h, Day 1 4:00 PM): 14.4 (5.4-32.9)^1
Plasma methadone concentrations median (range) ([3]; injectable methadone 0.5 mg/kg SC q 4 h, Day 1 8:00 PM): 22.4 (14.8-47.7)
Plasma methadone concentrations median (range) ([3]; injectable methadone 0.5 mg/kg SC q 4 h, Day 2 5:00 PM): 2.0 (0-10)^1,2
Plasma methadone concentrations median (range) ([3]; oral methadone/fluconazole/naltrexone formulation 0.5 mg/kg (methadone) PO q 12 h, Day 1 4:00 PM): 20.6 (2.6-30.3)^2
Plasma methadone concentrations median (range) ([3]; oral methadone/fluconazole/naltrexone formulation 0.5 mg/kg (methadone) PO q 12 h, Day 1 8:00 PM): 17.6 (2.0-29.8)^1
Plasma methadone concentrations median (range) ([3]; oral methadone/fluconazole/naltrexone formulation 0.5 mg/kg (methadone) PO q 12 h, Day 2 5:00 PM): 14.1 (3.6-41.7)^2,3
Plasma methadone concentrations median (range) ([3]; oral methadone/fluconazole/naltrexone formulation 1 mg/kg (methadone) PO q 12 h, Day 1 4:00 PM): 36.2 (3.2-67.7)^1,2
Plasma methadone concentrations median (range) ([3]; oral methadone/fluconazole/naltrexone formulation 1 mg/kg (methadone) PO q 12 h, Day 1 8:00 PM): 27.7 (2.1-54.8)^1
Plasma methadone concentrations median (range) ([3]; oral methadone/fluconazole/naltrexone formulation 1 mg/kg (methadone) PO q 12 h, Day 2 5:00 PM): 46.7 (1.4-98.5)^1,3
Sedation Score Moderate (number of dogs) ([4]; Day 0 5:00 PM): 0
Sedation Score None (number of dogs) ([4]; Day 0 5:00 PM): 13
Sedation Score Profound (number of dogs) ([4]; Day 0 5:00 PM): 0
Sedation Score Slight (number of dogs) ([4]; Day 0 5:00 PM): 0
Sedation Score Moderate (number of dogs) ([4]; Day 1 1:00 PM): 3
Sedation Score None (number of dogs) ([4]; Day 1 1:00 PM): 1
Sedation Score Profound (number of dogs) ([4]; Day 1 1:00 PM): 3
Sedation Score Slight (number of dogs) ([4]; Day 1 1:00 PM): 6
Sedation Score Moderate (number of dogs) ([4]; Day 1 4:00 PM): 0
Sedation Score None (number of dogs) ([4]; Day 1 4:00 PM): 5
Sedation Score Profound (number of dogs) ([4]; Day 1 4:00 PM): 0
Sedation Score Slight (number of dogs) ([4]; Day 1 4:00 PM): 8
Sedation Score Moderate (number of dogs) ([4]; Day 1 6:00 PM): 1
Sedation Score None (number of dogs) ([4]; Day 1 6:00 PM): 4
Sedation Score Profound (number of dogs) ([4]; Day 1 6:00 PM): 0
Sedation Score Slight (number of dogs) ([4]; Day 1 6:00 PM): 8
Sedation Score Moderate (number of dogs) ([4]; Day 1 8:00 PM): 0
Sedation Score None (number of dogs) ([4]; Day 1 8:00 PM): 9
Sedation Score Profound (number of dogs) ([4]; Day 1 8:00 PM): 0
Sedation Score Slight (number of dogs) ([4]; Day 1 8:00 PM): 6
Sedation Score Moderate (number of dogs) ([4]; Day 1 12:00 PM): 1
Sedation Score None (number of dogs) ([4]; Day 1 12:00 PM): 2
Sedation Score Profound (number of dogs) ([4]; Day 1 12:00 PM): 0
Sedation Score Slight (number of dogs) ([4]; Day 1 12:00 PM): 10
Sedation Score Moderate (number of dogs) ([4]; Day 2 5:00 PM): 0
Sedation Score None (number of dogs) ([4]; Day 2 5:00 PM): 13
Sedation Score Profound (number of dogs) ([4]; Day 2 5:00 PM): 0
Sedation Score Slight (number of dogs) ([4]; Day 2 5:00 PM): 0
Sedation Score Moderate (number of dogs) ([4]; Day 2 6:30 AM): 0
Sedation Score None (number of dogs) ([4]; Day 2 6:30 AM): 13
Sedation Score Profound (number of dogs) ([4]; Day 2 6:30 AM): 0
Sedation Score Slight (number of dogs) ([4]; Day 2 6:30 AM): 0
Sedation Score Moderate (number of dogs) ([4]; Day 3 7:00 AM): 0
Sedation Score None (number of dogs) ([4]; Day 3 7:00 AM): 13
Sedation Score Profound (number of dogs) ([4]; Day 3 7:00 AM): 0
Sedation Score Slight (number of dogs) ([4]; Day 3 7:00 AM): 0
Increase in methadone drug exposure when fluconazole is administered with methadone [5]: 30-35%
Sedation [6]: not noted in any of the dogs at any time point
Persistence of methadone plasma concentrations compared to the standard formulation of methadone ([7]; injectable opioid formulation containing an azole antifungal): persisted longer
Time to which methadone plasma concentrations persisted ([7]; injectable opioid formulation containing an azole antifungal, SC at 0 and 4 h, one dog): at least 32 hours
concentration at 32 h ([7]; mixed breed, dog, in vivo, sc): 4 ng/mL
Treatment Outcome: Failure (number of dogs, rescue analgesic needed) [8]: 0
Treatment Outcome: Success (number of dogs, no rescue analgesic) [8]: 13
